# Results taken from patent publication US10111880B2, “Compounds for the treatment of diabetes and disease complications arising from same” (BEN-GURION UNIVERSITY OF THE NEGEV RESEARCH AND DEVELOPMENT …, priority 2013, dated 2018).
# “Also recorded” adds a separate entry of the source.
# Key:
# pancreatic β-cells = assay: Insulin immuno-histochemical and immuno-fluorescence staining of pancreas, β-cell mass in STZ-injected rats; type: in vivo, rat; conditions: FIG. 5A, 5B, 5D
# Description: Rats were treated as described in Example 1, pancreata were removed fixed in 4% formalin, and embedded in paraffin for immuno-histochemical and immuno-fluorescence staining using a specific anti-insulin antibody and serial histopathologic sections were prepared. […] Brown staining in FIG. 5A indicates insulin staining positivity by immunohistochemistry, and red staining (FIGS. 5B and 5C) indicates insulin staining positivity by immunofluorescence, blue cellular staining was effected with Dapi). The Cell density and density of insulin staining per area was measured using “Image J” software (FIGS. 5D and 5E). The results are presented as mean±S.E.; n=4. ***p<0.005.
# [1] = tested on: STZ-induced diabetic ICR mice; assay: Blood glucose in STZ-induced diabetic ICR mice, long-term AGS treatment (5 months) with or without insulin; type: in vivo, mouse; parameters: Blood Glucose At 101 day / Blood Glucose At 111 day: unit: mg/dL; conditions: for % reduction in blood glucose level / Blood glucose level Average: after 12 hours fast, day 142; for Blood glucose level Average: in mg/dL (unit assumed)
# Description: [0182]7 week-old female ICR mice were intra-peritoneally injected with STZ (40 mg\Kg) for 5 consecutive days. Non-diabetic mice received citrate buffer (pH 4.3, cold), which served as the vehicle controls for this study. AGS-500 (6 mg\Kg) was then administered subcutaneously every 2 days, for 5 months, on the first day after STZ administration. A further control group, where DMSO was administered in accordance with this regimen, was included. Mice were divided into the following 6 groups (10 mice per group except STZ only-5 mice): • STZ only • STZ+DMSO • Citrate+DMSO 1% every day • STZ+AGS-499 (6 mg/kg) injected every day S.C • STZ+AGS-500 (6 mg/kg) injected every day S.C • STZ+AGS-500 (6 mg/kg) injected every other day S.C Mice were weighed and blood glucose levels were measured using a free style glucometer. Food consumption was also measured 24 hours prior to STZ injection. The concentration of STZ to be injected was calculated. STZ at 40 mg/kg was injected ip for 5 consecutive days. AGS treatment was administered one day following the last STZ injection. The establishment of diabetes was validated by the assessment of blood glucose levels performed every 3 days (at the beginning) and once a week after 59 days from the initiation of the experiment. Blood glucose levels over 200 mg/dl (measured 3 consecutive times) indicated a diabetic state. At 80 days from the initiation of the experiments each group was divided to 2 subgroups which received either insulin (4 units/kg) or acetic acid (0.015%) both in HEPES buffer (pH 7.45) injected every 48 hours. Mice were sacrificed after 5 months from the initiation of the experiments. Blood glucose levels were monitored every 3 days. Ten weeks after the beginning of this study, each group was divided into 2 sub-groups, one of each also received insulin (4 U\Kg) every 2 days, except for the non-diabetic sub-groups. Acetic acid (1%) served as the vehicle control.
# [2] = tested on: STZ-induced diabetic ICR mice; assay: Glucose tolerance test in STZ mice after short course (2 weeks) AGS treatment; type: in vivo, mouse
# Description: (§1) Eight weeks-old female ICR mice were injected intraperitoneally (IP) with Streptozotocin (STZ), at a dose of 40 mg/Kg, for 5 consecutive days. The following day and onward, mice were administered the AGS compounds (499 or 500, as indicated), at a dose of 6 mg/Kg, either subcutaneously or orally, every other day. Blood glucose levels were monitored daily.
# (§2) After the establishment of diabetes (i.e. three consecutive blood glucose measurements of >200 mg/dL), mouse groups were further sub-divided into 2 sub-groups, one of each received insulin (gradual administration of 0.5-6 units/Kg, over a period of 2 weeks) subcutaneously, every other day. Blood glucose levels were monitored daily.
# Glucose tolerance tests were also performed as follows: After two weeks mice were fasted for 12 hours, then injected with D-glucose (1.5 g/Kg, IP) and blood glucose levels were examined at 0, 10, 20, 30, 60, 90 and 120 minutes, in order to evaluate pancreatic function.
# [3] = tested on: STZ-induced diabetic ICR mice; assay: Blood glucose over time in STZ mice, short course (2 weeks) AGS treatment with or without insulin; type: in vivo, mouse
# Description: as §1, §2
# [4] = tested on: insulin expressing beta islets; assay: Immunofluorescence of pancreatic slices with anti-insulin antibody, insulin expressing beta islets in mice; type: in vivo, mouse
# Description: The light grey (originally red) stains insulin producing cells, and the darker grey (originally blue) is for DAPI staining. Density of insulin staining per area was measured using “Image J” software (D-E). The results are mean±S.E.; n=4. ***p<0.005. Magnification: ×10.
compound,measurement,setting,value
"CC(c1cc(Br)c(O)c(Br)c1)(c1cc(Br)c(O)c(Br)c1)c1cc(Br)c(O)c(Br)c1 [AGS-500, 1,1,1-tris (4-hydroxy-3,5-dibromo-phenyl)-ethane]",β-cell mass in the pancreas of STZ-injected rats,pancreatic β-cells,significantly larger β-cell mass; also recorded: preserved β-cell Mass
same,blood glucose levels with time,"[1]; AGS 500 every 48 hrs, without insulin",best effect in reducing blood glucose levels with time
same,"circulating glucose levels, AGS-500 alone versus combined AGS-500 and insulin",[1]; FIG. 2F,greatest therapeutic effect
same,% reduction in blood glucose level,[1]; 6 mg/kg s.c. daily,20%
same,Blood glucose level Average,[1]; 6 mg/kg s.c. daily,317.4
same,% reduction in blood glucose level,[1]; 6 mg/kg s.c. every 48 hrs,32%
same,Blood glucose level Average,[1]; 6 mg/kg s.c. every 48 hrs,270
same,% reduction In blood Glucose 101 day,"[1]; no insulin, daily",15%
same,Blood Glucose At 101 day,"[1]; no insulin, daily",600
same,Blood Glucose At 111 day,"[1]; no insulin, daily",450
same,reduction In blood Glucose 111 day,"[1]; no insulin, daily",25%
same,% reduction In blood Glucose 101 day,"[1]; no insulin, every 48 hrs",43%
same,Blood Glucose At 101 day,"[1]; no insulin, every 48 hrs",400
same,Blood Glucose At 111 day,"[1]; no insulin, every 48 hrs",390
same,reduction In blood Glucose 111 day,"[1]; no insulin, every 48 hrs",35%
same,Blood Glucose At 101 day,"[1]; with insulin (4 units/kg every 48 hours), AGS daily",460
same,% reduction In blood Glucose 101 day,"[1]; with insulin, AGS daily",34%
same,Blood Glucose At 111 day,"[1]; with insulin, AGS daily",400
same,reduction In blood Glucose 111 day,"[1]; with insulin, AGS daily",34%
same,% reduction In blood Glucose 101 day,"[1]; with insulin, AGS every 48 hrs",32%
same,Blood Glucose At 101 day,"[1]; with insulin, AGS every 48 hrs",480
same,Blood Glucose At 111 day,"[1]; with insulin, AGS every 48 hrs",400
same,reduction In blood Glucose 111 day,"[1]; with insulin, AGS every 48 hrs",34%
same,mean blood glucose levels in a glucose tolerance test,"[2]; 6 mg/Kg subcutaneously or orally every other day, FIG. 11",reduced mean blood glucose levels
same,effect of adding insulin on circulating glucose levels in a glucose tolerance test,"[2]; AGS subcutaneously (AGS500 also orally), FIG. 12",adding insulin did not appreciably lower the circulating levels
same,circulating glucose levels over time,"[3]; 6 mg/Kg every other day, short course (2 weeks), FIG. 13-1",lowering circulating glucose levels significantly
same,"circulating glucose levels over time, combined with insulin therapy","[3]; short course, insulin 0.5-6 units/Kg, FIG. 13-2",synergistic contribution
same,β-cell Mass in STZ-injected mice,"[4]; immunofluorescence, FIG. 5C",preserved β-cell Mass
same,No of insulin expressing beta islets/mouse,"[4]; no insulin, daily",5.6
same,increase in Insulin expressing Beta islets,"[4]; no insulin, daily",215%
same,No of insulin expressing beta islets/mouse,"[4]; no insulin, every 48 hrs",5
same,increase in Insulin expressing Beta islets,"[4]; no insulin, every 48 hrs",192%
same,No of insulin expressing beta islets/mouse,"[4]; with insulin, AGS daily",2.5
same,No of insulin expressing beta islets/mouse,"[4]; with insulin, AGS every 48 hrs",3
same,increase in Insulin expressing Beta islets,"[4]; with insulin, AGS every 48 hrs",115%
